Three compounds from patent US10947196B2, “Beta adrenergic agonist and methods of using the same” (CURASEN THERAPEUTICS, INC., priority 2019, dated 2021) can be followed below.

Structures are written as SMILES.

Series [1] in a line: Dog pharmacokinetic studies. Format: in vivo, male Beagle dogs. To be noted: for AUC(0-inf) / Cmax / MRT / Tmax: male, Beagle. The method, then:
The rat pharmacokinetics studies of exemplary compounds 03-3, 03-5, and 03-115 were conducted with male SD rats. These rats were typically about 6-8 weeks old, weighing 200 g to 300 g. Animals were fasted overnight and free access to food 4 hours after dosing. A required volume of vehicle was added to reach the target concentration of the test article and vehicle component to prepare for the dosing. The dosing vehicle was PEG400 or 30% PEG400 in saline for IV, or 0.5% methylcellulose in water for PO. For IV dosing, the animals were administered intravenously via tail vein. For PO dosing, the animals were administered via oral gavage. After dosing, blood sample was collected (˜0.2 mL per time point) through jugular vein or heart puncture. Blood of each sample was transferred into plastic micro centrifuge tubes containing EDTA-K2. Collection tubes with blood samples and anticoagulant were inverted several times for proper mixing of the tube contents and then placed on wet ice. The blood samples were centrifuged at 2000 g for 5 minutes at 4° C. to obtain plasma which was stored in a freezer at −75±15° C. prior to analysis. Samples were analyzed using LC-MS/MS. WinNonlin were used for pharmacokinetic calculations.
Dog pharmacokinetics studies of exemplary compounds 03-3, 03-5, and 03-115 were conducted substantially similarly to the rat pharmacokinetic studies, instead using male Beagle dogs. Animals for PO studies were food fasted overnight prior to dosing and were fed approximately 2 hours after dosing. Animals for IV studies had free access to food and water. Blood samples were collected through venipuncture of peripheral veins except the dosing vein.

Series [2] in a line: MDCK-MDR1 permeability assay. Format: in vitro ADME. The following applies: dog, MDCK-MDR1, pH 7.4, 5 μM, 2 hours; for Papp A→B at 2 h, 5 μM: apical to basolateral; for Papp B→A at 2 h, 5 μM: basolateral to apical. The method, then:
(§1) Preparation of MDCK-MDR1 Cells. Cell culture medium of was added to each well of the Transwell insert (50 μL) and reservoir (25 mL). The HTS transwell plates were then incubated at 37° C., 5% CO2 for 1 hour before cell seeding. MDCK-MDR1 cells were diluted to 1.56×10^6 cells/mL with culture medium and 50 μL of cell suspension were dispensed into the filter well of the 96-well HTS Transwell plate. Cells were cultivated for 4-8 days in a cell culture incubator at 37° C., 5% CO2, 95% relative humidity. Cell culture medium was replaced every other day, beginning no later than 24 hours after initial plating.
(§2) Preparation of Stock Solutions. 10 mM stock solutions of test compounds were prepared in DMSO. The stock solutions of positive controls were prepared in DMSO at the concentration of 10 mM. Metoprolol, prazosin and imatinib were used as control compounds in this assay.
(§3) Assessment of Cell Monolayer Integrity. Medium was removed from the reservoir and each Transwell insert and replaced with prewarmed fresh culture medium. Transepithelial electrical resistance (TEER) across the monolayer was measured using Millicell Epithelial Volt-Ohm measuring system (Millipore, USA). The Plate was returned to the incubator once the measurement was done. TEER value should be greater than 42 ohm·cm2, which indicates the well-qualified MDCK-MDR1 monolayer. The TEER value was calculated according to the following equation: TEER measurement (ohms)×Area of membrane(cm^2)=TEER value(ohm·cm^2)
(§4) Assay Procedures. The MDCK-MDR1 plate was removed from the incubator and washed twice with pre-warmed HBSS (10 mM HEPES, pH 7.4), and then incubated at 37° C. for 30 minutes. The stock solutions of test compounds and controls were diluted in DMSO to get 1 mM solutions and then diluted with HBSS (10 mM HEPES, pH 7.4) to get 5 μM working solutions. The final concentration of DMSO in the incubation system was 0.5%.
(§5) To determine the rate of drug transport in the apical to basolateral direction, 125 μL of 5 μM working solution of test compound and control compound were added to the Transwell insert (apical compartment), and transfer 50 μL sample (DO sample) immediately from the apical compartment to a new 96-well plate. The wells in the receiver plate (basolateral compartment) were filled with 235 μL of HBSS (10 mM HEPES, pH 7.4). The assay was performed in duplicate.
(§6) To determine the rate of drug transport in the basolateral to apical direction, 285 μL of 5 μM working solution of test compound and control compound were to the receiver plate wells (basolateral compartment), and transfer 50 μL sample (DO sample) immediately from the basolateral compartment to a new 96-well plate. The wells in the Transwell insert (apical compartment) were filled with 75 μL of HBSS (10 mM HEPES, pH 7.4). The plates were incubated at 37° C. for 2 hours. At the end of the incubation, 50 μL samples from donor sides (apical compartment for Ap→Bl flux, and basolateral compartment for Bl→Ap) and receiver sides (basolateral compartment for Ap→Bl flux, and apical compartment for Bl→Ap) were transferred to wells of a new 96-well plate, followed by the addition of 4 volume of cold methanol containing appropriate internal standards (IS). Samples were Vortexed for 5 minutes and then centrifuged at 3,220 g for 40 minutes. An aliquot of 100 μL of the supernatant was mixed with an appropriate volume of ultra-pure water before LC-MS/MS analysis.
(§7) To determine the Lucifer Yellow leakage after 2 hour transport period, stock solution of Lucifer yellow was prepared in DMSO and diluted with HBSS (10 mM HEPES, pH 7.4) to reach a final concentration of 100 μM. Lucifer yellow solution (100 μL) was added to each Transwell insert (apical compartment), followed by filling the wells in the receiver plate (basolateral compartment) with 300 μL of HBSS (10 mM HEPES, pH 7.4). […]

A further series concerns MDR1. The series is described as follows: MDCK-MDR1 permeability assay. The class given is in vitro ADME. The following applies: dog, MDCK-MDR1, pH 7.4; Papp(B-A)/Papp(A-B). As to the method: as §1, §2, §3, §4, §5, §6, §7

One may read the AUC(0-inf) as total exposure, with the tail of the curve extrapolated. By Cmax is commonly meant the highest concentration seen after dosing. Usually MRT stands for a mean duration of stay, worked out from the concentration-time curve. As a reminder, the Tmax is the time from dosing to the highest level. The term Papp A→B denotes how fast a substance crosses the layer from the apical side. Lower therefore signals slow passage. The Papp B→A is the apparent permeability from the basolateral to the apical side of a cell layer. In general, efflux ratio refers to a quotient of directional permeabilities that is used to spot active efflux. In turn, `Cc1ncccc1[C@@H](O)CNC(C)(C)C` [Compound 03-115] showed a F in series [1] (PO 0.5 mg/kg) of 53%. In series [1] (PO 1.5 mg/kg), this compound had an F of 71%. Besides, in series [1] (in vivo, PO 0.5 mg/kg), the AUC(0-inf) was found to be 132 ng·h/mL, the highest level (Cmax) was 72.3 ng/mL, the MRT came to 109 min and the Tmax is 30 min. Moreover, in series [1] (in vivo, PO 1.5 mg/kg), the AUC(0-inf) came out at 537 ng·h/mL, the highest concentration (Cmax) came to 387 ng/mL, the MRT came out at 101 min and the Tmax turned out to be 19.8 min. In series [2], this compound had a Papp A→B at 2 h, 5 μM of 6.96 ×10⁻⁶ cm/s and a Papp B→A at 2 h, 5 μM of 11 ×10⁻⁶ cm/s. Besides, the efflux ratio at 2 h, 5 μM in the series on MDR1 amounted to 1.58.

`CC(C)(C)NC[C@H](O)c1cccc(C(F)(F)F)n1` [Compound 03-3]: in series [1] (PO 1 mg/kg), the F came to 111%. This compound also gave a F in series [1] (PO 2.5 mg/kg) of 194%. Moreover, in series [1] (plasma, PO 1 mg/kg), the total exposure AUC(0-inf) was 584 ng·h/mL, the concentration peaked (Cmax) at 227 ng/mL, the MRT is 116 min and the Tmax is 30 min. Besides, in series [1] (plasma, PO 2.5 mg/kg), the AUC(0-inf) amounted to 1590 ng·h/mL, the Cmax came to 413 ng/mL, the MRT stood at 191 min and the Tmax worked out at 30 min. In series [2], this compound yielded a Papp A→B at 2 h, 5 μM of 25.3 ×10⁻⁶ cm/s and a Papp B→A at 2 h, 5 μM of 19.8 ×10⁻⁶ cm/s. In the series on MDR1, the efflux ratio at 2 h, 5 μM was determined as 0.78.

For the compound `CC(C)(C)NC[C@H](O)c1cccc(C#N)n1` [Compound 03-5, (S)-6-(2-(tert-butylamino)-1-hydroxyethyl)picolinonitrile], the F in series [1] (PO 0.3 mg/kg) is recorded as 72%. In series [1] (PO 1 mg/kg), this compound returned an F of 70%. In series [1] (plasma, PO 0.3 mg/kg), the AUC(0-inf) is 55.4 ng·h/mL, the Cmax was 43.2 ng/mL, the MRT came to 73.2 min and the Tmax came to 25.2 min. In series [1] (plasma, PO 1 mg/kg), the AUC(0-inf) was 273 ng·h/mL, the Cmax came to 164 ng/mL, the MRT was 82.2 min and the time to peak (Tmax) is 19.8 min. In series [2], the Papp A→B at 2 h, 5 μM was 15.2 ×10⁻⁶ cm/s and the Papp B→A at 2 h, 5 μM was found to be 16.2 ×10⁻⁶ cm/s. The efflux ratio at 2 h, 5 μM in the series on MDR1 is 1.06.
